Consider five molecules from patent US20130178454A1, “COMBINATION OF TESTOSTERONE AND ORNITHINE DECARBOXYLASE (ODC) INHIBITORS” (priority 2011, published 2013).

Entries after “also recorded” stand apart in the source; their conditions may differ.

Data set [1] concerns castrated C57BL/6 mice. Briefly: Prostate and levator ani muscle weights in castrated mice treated with testosterone or testosterone plus DFMO (FIG. 9). It counts as in vivo. From the text: Shown is a histogram showing prostate weights and levator ani muscle weights in vehicle-treated intact C57BL/6 mice, and castrated mice treated with vehicle, testosterone, or testosterone plus an ODC inhibitor DFMO.

Data set [2] deals with T1, ornithine decarboxylase (Homo sapiens, UniProt P11926).
T1 sequence (P11926 1-461): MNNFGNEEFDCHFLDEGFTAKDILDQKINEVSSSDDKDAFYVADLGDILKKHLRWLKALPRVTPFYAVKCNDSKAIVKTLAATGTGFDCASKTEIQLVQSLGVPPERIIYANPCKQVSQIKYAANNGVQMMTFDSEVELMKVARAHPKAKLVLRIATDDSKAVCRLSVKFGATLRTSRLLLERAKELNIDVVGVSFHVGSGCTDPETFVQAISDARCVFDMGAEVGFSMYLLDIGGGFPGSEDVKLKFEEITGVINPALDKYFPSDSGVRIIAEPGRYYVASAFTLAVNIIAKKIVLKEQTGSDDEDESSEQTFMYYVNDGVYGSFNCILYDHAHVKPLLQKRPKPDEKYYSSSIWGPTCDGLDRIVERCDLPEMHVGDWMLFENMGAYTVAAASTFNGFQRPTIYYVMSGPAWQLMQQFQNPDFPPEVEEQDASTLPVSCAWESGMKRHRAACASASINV
The settings on record: cited from earlier work.

The subject of data set [3] is carcinogen-induced cancer development. The following applies: variety of rodent models; cited from earlier work.
For data set [4], the system named is PCNA expression in the prostate epithelial cells. The data set is described as follows: PCNA expression in prostate epithelial cells (FIG. 7C). It is filed as cell-based. The settings on record: follistatin 1 ng/ml and 5 ng/ml, DHT 10 nM.
In data set [5] the test system is PSA expression in the prostate epithelial cells. Briefly: PSA expression in prostate epithelial cells (FIG. 7B). The settings on record: follistatin 1 ng/ml and 5 ng/ml, R1881 1 nM. It counts as cell-based.
The subject of data set [6] is castrated (CX) mice. The data set is described as follows: Histologic sections of the prostate in castrated mice (FIG. 7A). It is filed as in vivo.
Data set [7] has as its system ornithine decarboxylase (ODC) and polyamine pathway in the prostate. The data set is described as follows: Microarrays of prostate RNA from castrated mice treated with follistatin or testosterone (FIG. 8). The settings on record: microarray. It counts as in vivo. From the text: FIG. 8A is a schematic of microarray experiments to identify testosterone-selective signalling pathways in the prostate which are not activated by follistatin (Fst), and identify genes which are follistatin sensitive and those which are testosterone sensitive. Adult male mice were either sham-castrated or castrated under ketamine-xylazine anesthesia and treated with vehicle (sham), follistatin or testosterone. RNA was extracted from the prostate and levator ani muscle and subjected to microarrays. […] Shown in the box is the region of highly differentially expressed genes between the follistatin (Fst/CX) and testosterone (Tes/CX) treated mice.
Using microarrays, the inventors elucidated the signaling pathways that are differentially activated in the skeletal muscle and prostate by each of testosterone and follistatin, and assessed the pathways that are specifically activated in the prostate by testosterone, but were not follistatin (FIG. 8A-8B). The inventors determined that testosterone and follstatin both activate common signaling pathways that mediate their anabolic effects on the skeletal muscle, and specifically assessed if testosterone activates one or more unique signaling pathways in the prostate that are not activated by follistatin.

Data set [8] has as its system C3H 10T1/2 cells. The following applies: 100 nm testosterone, 0.5 μg/ml anti-Fst antibody, rFst 0.2 μg/ml; cited from earlier work.
The test system of data set [9] is Wnt target genes in 3T3-L1 cells. The following applies: 3T3-L1 cells incubated with 100 nM testosterone; cited from earlier work.
The subject of data set [10] is older men with low or low normal testosterone levels. The settings on record: testosterone versus placebo; cited from earlier work.
For data set [11] the following is noted: cited from earlier work.
Data set [12] concerns C57BL/6 mice. Briefly: Systemic follistatin treatment of mice: fat mass, lean mass, muscle and bone mass (FIG. 6). It counts as in vivo.
Data set [13] has as its system LNCaP cells. Briefly: Proliferation of androgen-sensitive LNCaP cells in vitro. It is filed as cell-based.
Setting [14] is: mice in vivo, given with testosterone.

For `NCCCC(N)(C(=O)O)C(F)F` (racemic) [DFMO, (RS)-2,5-diamino-2-(difluoromethyl)pentanoic acid], in data set [1] (setting [14]), the “effect of the ODC inhibitor on testosterone's anabolic effect on the muscle” value was “did not block testosterone's effect on the muscle; also recorded: maintaining muscle anabolic effects of testosterone” and the “effect of the ODC inhibitor on testosterone-induced prostate growth” value is listed as “blocks testosterone's effects on the prostate; also recorded: suppresses testosterone-induced prostate growth in vivo”. The “inhibition of ornithine decarboxylase” value in data set [2] is “potent inhibitor of ornithine decarboxylase”. In addition, the carcinogen-induced cancer development result in data set [3] is listed as “inhibit carcinogen-induced cancer development”.

In the case of `C[C@]12CCC(=O)C[C@@H]1CC[C@@H]1[C@@H]2CC[C@]2(C)[C@@H](O)CC[C@@H]12` [DHT, Dihydrotestosterone], the PCNA expression result in data set [4] is “upregulated PCNA expression”.

As for `C[C@]1(O)CC[C@H]2[C@@H]3CCC4=CC(=O)CCC4=C3C=C[C@@]21C` [R1881], the PSA expression entry in [5] was “stimulates PSA expression”.

On to `C[C@]12CC[C@H]3[C@@H](CCC4=CC(=O)CC[C@@]43C)[C@@H]1CC[C@@H]2O` [testosterone, 17-β-hydroxyandrost-4-en-3-one], for which, in [1] (castrated C57BL/6 mice), the “levator ani muscle mass (levator ani muscle weights)” value is “restored prostate as well as levator ani muscle mass” and the “prostate mass (prostate weights)” value is “restored prostate as well as levator ani muscle mass”. For the same molecule, the “prostate growth and prostate glands” value in data set [6] was “restored prostate mass and growth of prostate glands”. Besides, in data set [7], the “polyamine biosynthetic pathway / ODC gene expression in the prostate” value is reported as “activated by testosterone in the prostate”. Also, the “polyamine biosynthetic pathway / ODC gene expression in the prostate” value in data set [7] (listed as Testosterone) is reported as “upregulate several biosynthetic pathways including the polyamine biosynthetic pathway”. Besides, in [8], the “myogenic differentiation of mesenchymal multipotent cells” value is recorded as “promotes myogenic differentiation; also recorded: stimulate myogenic differentiation”. For the same molecule, in data set [9], the “Fst, CD44 and Lef1 gene expression” value is “upregulation of Fst (follastin) and CD44 and Lef1 gene expression”. In data set [10], the fat mass result was “reduces fat mass”; the “lean body mass, muscle strength and bone mineral density” value is “improves lean body mass (LBM), a measure of muscle mass, muscle strength and bone mineral density (BMD)”. In addition, the “testosterone circulating unbound to plasma proteins” value in data set [11] was “Less than 2.5%”.

B1: follistatin: an endogenous protein that increases muscle mass; recombinant Fst protein (protein, UniProt P19883 30-344, looked up)
Follistatin: GNCWLRQAKNGRCQVLYKTELSKEECCSTGRLSTSWTEEDVNDNTLFKWMIFNGGAPNCIPCKETCENVDCGPGKKCRMNKKNKPRCVCAPDCSNITWKGPVCGLDGKTYRNECALLKARCKEQPELEVQYQGRCKKTCRDVFCPGSSTCVVDQTNNAYCVTCNRICPEPASSEQYLCGNDGVTYSSACHLRKATCLLGRSIGLAYEGKCIKAKSCEDIQCTGGKKCLWDFKVGRGRCSLCDELCPDSKSDEPVCASDNATYASECAMKEAACSSGVLLEVKHSGSCNSISEDTEEEEEDEDQDYSFPISSILEW
Regarding B1, in data set [12] (castrated mice), the fat mass result was “reduces fat mass”; the “muscle and bone mass” value was “increases muscle and bone mass”. In data set [12] (mice, 13 weeks systemic administration of 0, 10, 30 and 100 μg recombinant follistatin), the “lean body mass, measured by NMR” value is “increased dose-dependently”. In addition, the “fat mass, expressed as a percent of body weight” value in data set [12] (mice, 13 weeks systemic administration of 10, 30 and 100 μg follistatin) is “fat mass is decreased”. In data set [6], the “prostate growth and prostate glands” value is recorded as “does not stimulate prostate growth; also recorded: did not stimulate prostate growth or glands”. Further, the PSA expression entry in [5] is given as “nor does it up regulate PSA expression; also recorded: does not stimulate PSA expression”. Besides, the “proliferation of androgen-sensitive LNCaP cells” value in data set [13] is listed as “does not up stimulate the proliferation”. For the same molecule, the “polyamine biosynthetic pathway / ODC gene expression in the prostate” value in [7] is given as “not upregulated”. In addition, the “myogenic differentiation of mesenchymal multipotent cells” value in data set [8] was “stimulate myogenic differentiation”.
